Data from patent US11203600B2 (Denali Therapeutics Inc., priority 2017, dated 2021).

The molecules below were run against GST-hRIPK1 (8-327) (Homo sapiens (Human), UniProt Q13546) (assay: Fluorescent Polarization Binding (FP Binding) assay, RIPK1). Settings: 10 nM GST-hRIPK1 (8-327), 5 nM fluorescent-labeled ligand, RT, 30 min, mean of at least two independent experiments.
Procedure, shortened: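 Binding by fluorescence polarisation at RT: 10 nM baculovirus-expressed GST-hRIPK1 (8-327) and 5 nM fluorescent ligand, 30 min, in 50 mM HEPES pH 7.5, 50 mM MgCl2, 0.02% CHAPS, 1% DMSO. FP read at ex 531/em 595 nm. IC50 from normalised percent inhibition, mean of ≥2 experiments.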

Sequence of GST-hRIPK1 (8-327) (Q13546 8-327): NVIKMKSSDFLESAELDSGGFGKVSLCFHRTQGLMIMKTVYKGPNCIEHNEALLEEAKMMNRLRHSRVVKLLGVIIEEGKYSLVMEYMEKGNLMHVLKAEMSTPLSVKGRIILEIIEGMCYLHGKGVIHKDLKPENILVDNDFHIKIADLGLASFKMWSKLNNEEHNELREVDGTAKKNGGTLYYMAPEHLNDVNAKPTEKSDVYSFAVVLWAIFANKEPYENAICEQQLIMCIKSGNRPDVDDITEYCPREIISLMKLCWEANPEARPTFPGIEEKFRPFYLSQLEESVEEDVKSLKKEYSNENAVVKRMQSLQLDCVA

SMILES | IC50 [nM]
CC(C)(C(=O)N1CCOc2cc(C(F)(F)F)ncc2C1)C(F)F [Example 66, 3,3-difluoro-2,2-dimethyl-1-[8-(trifluoromethyl)-3,5-dihydro-2H-pyrido[3,4-f][1,4]oxazepin-4-yl]propan-1-one] | > 1000
CCC(C)(C(=O)N1CCOc2c(C#N)cncc2C1)C(F)(F)F (stereo not drawn) [Example 67, 4-[2-methyl-2-(trifluoromethyl)butanoyl]-3,5-dihydro-2H-pyrido[3,4f][1,4]oxazepine-9-carbonitrile] | 0.1 to 100
CC(C)(C(=O)N1CCOc2cc(F)ccc2C1)C(F)F [Example 68, 3,3-difluoro-1-(8-fluoro-3,5-dihydro-2H-1,4-benzoxazepin-4-yl)-2,2-dimethyl-propan-1-one] | 100 to 1000
CC(C)(OC(F)(F)F)C(=O)N1CCOc2c(C#N)cncc2C1 [Example 69, 4-[2-methyl-2-(trifluoromethoxy)propanoyl]-3,5-dihydro-2H-pyrido[3,4-f][1,4]oxazepine-9-carbonitrile] | 0.1 to 100
CC(C)(CC#N)C(=O)N1CCOc2c(F)cncc2C1 [Example 70, 4-(9-fluoro-2,3-dihydropyrido[3,4-f][1,4]oxazepin-4(5H)-yl)-3,3-dimethyl-4-oxobutanenitrile] | 100 to 1000
CC(C#N)C(C)(C)C(=O)N1CCOc2c(F)cncc2C1 (stereo not drawn) [Example 71, 4-(9-fluoro-2,3-dihydropyrido[3,4-f][1,4]oxazepin-4(5H)-yl)-2,3,3-trimethyl-4-oxobutanenitrile] | > 1000
CC(C#N)C(C)(C)C(=O)N1CCOc2c(C#N)cncc2C1 (stereo not drawn) [Example 72] | 100 to 1000
CCC(C)(CC#N)C(=O)N1CCOc2c(F)cncc2C1 (stereo not drawn) [Example 73, 3-(9-fluoro-3,5-dihydro-2H-pyrido[3,4-f][1,4]oxazepine-4-carbonyl)-3-methyl-pentanenitrile] | 100 to 1000
CCC(C)(CC#N)C(=O)N1CCOc2c(C#N)cncc2C1 (stereo not drawn) [Example 74, 4-[2-(cyanomethyl)-2-methyl-butanoyl]-3,5-dihydro-2H-pyrido[3,4-f][1,4]oxazepine-9-carbonitrile] | 0.1 to 100
CCC(C)(C)C(=O)N1Cc2cncc(C#N)c2OC[C@H]1C [Example 75, (3R)-4-(2,2-dimethylbutanoyl)-3-methyl-3,5-dihydro-2H-pyrido[3,4-f][1,4]oxazepine-9-carbonitrile] | 0.1 to 100
CCC(C)C(=O)N1Cc2cncc(C#N)c2OC[C@H]1C (stereo partly drawn) [Example 76, (3R)-3-methyl-4-(2-methylbutanoyl)-3,5-dihydro-2H-pyrido[3,4-f][1,4]oxazepine-9-carbonitrile] | 100 to 1000
C[C@@H]1COc2c(C#N)cncc2CN1C(=O)C(C)(C)CF [Example 77, (3R)-4-(3-fluoro-2,2-dimethyl-propanoyl)-3-methyl-3,5-dihydro-2H-pyrido[3,4-f][1,4]oxazepine-9-carbonitrile] | 0.1 to 100
C[C@@H]1COc2c(C#N)cncc2CN1C(=O)C(C)(C)C [Example 78, (3R)-4-(2,2-dimethylpropanoyl)-3-methyl-3,5-dihydro-2H-pyrido[3,4-f][1,4]oxazepine-9-carbonitrile] | 0.1 to 100
CC(C)(C(=O)N1CCOc2c(F)cncc2C1)C(F)(F)F [Example 79, 3,3,3-trifluoro-1-(9-fluoro-3,5-dihydro-2H-pyrido[3,4-f][1,4]oxazepin-4-yl)-2,2-dimethyl-propan-1-one] | 100 to 1000
CC(C)(C)C(=O)N1CCOc2c(F)cncc2C1 [Example 80, 1-(9-fluoro-3,5-dihydro-2H-pyrido[3,4-f][1,4]oxazepin-4-yl)-2,2-dimethyl-propan-1-one] | 100 to 1000
CC(C)(C(=O)N1CCOc2c(C#N)cncc2C1)C1(O)CC1 [Example 81, 4-(2-(1-hydroxycyclopropyl)-2-methylpropanoyl)-2,3,4,5-tetrahydropyrido[3,4-f][1,4]oxazepine-9-carbonitrile] | > 1000
CC(C)(C(=O)N1CCOc2c(C#N)cncc2C1)C1CC1C(F)F (stereo not drawn) [Example 82, 4-[2-(-2-(difluoromethyl)cyclopropyl)-2-methyl-propanoyl]-3,5-dihydro-2H-pyrido[3,4-f][1,4]oxazepine-9-carbonitrile] | 100 to 1000
CC(C)(C(=O)N1CCOc2c(C#N)cncc2C1)C1CC1C#N (stereo not drawn) [Example 83, 4-[2-(2-cyanocyclopropyl)-2-methyl-propanoyl]-3,5-dihydro-2H-pyrido[3,4-f][1,4]oxazepine-9-carbonitrile] | > 1000

SMILES | IC50 [nM]
CC(C)(C(=O)N1CCOc2c(C#N)cncc2C1)C1CC(F)(F)C1 [Example 84, 4-[2-(3,3-difluorocyclobutyl)-2-methyl-propanoyl]-3,5-dihydro-2H-pyrido[3,4-f][1,4]oxazepine-9-carbonitrile] | 0.1 to 100
CC(C)(C(=O)N1CCOc2c(C#N)cncc2C1)C1CN(c2ncc(F)cn2)C1 [Example 85, 4-[2-[1-(5-fluoropyrimidin-2-yl)azetidin-3-yl]-2-methyl-propanoyl]-3,5-dihydro-2H-pyrido[3,4-f][1,4]oxazepine-9-carbonitrile] | 100 to 1000
C[C@@H]1COc2c(C#N)cncc2CN1C(=O)C1(F)CCN(c2ncc(F)cn2)CC1 [Example 86, (3R)-4-[4-fluoro-1-(5-fluoropyrimidin-2-yl)piperidine-4-carbonyl]-3-methyl-3,5-dihydro-2H-pyrido[3,4-f][1,4]oxazepine-9-carbonitrile] | 0.1 to 100
N#Cc1cncc2c1OCCN(C(=O)C1(F)CCN(c3cnccn3)CC1)C2 [Example 87, 4-(4-fluoro-1-pyrazin-2-yl-piperidine-4-carbonyl)-3,5-dihydro-2H-pyrido[3,4-f][1,4]oxazepine-9-carbonitrile] | 100 to 1000
N#Cc1cncc2c1OCCN(C(=O)C1(F)CCN(c3ccncn3)CC1)C2 [Example 88, 4-(4-fluoro-1-pyrimidin-4-yl-piperidine-4-carbonyl)-3,5-dihydro-2H-pyrido[3,4-f][1,4]oxazepine-9-carbonitrile] | 100 to 1000
CC(C)(C(=O)N1CCOc2c(C#N)cncc2C1)C1CCN(c2ncc(F)cn2)C1 (stereo not drawn) [Example 90, 4-[2-[1-(5-fluoropyrimidin-2-yl)pyrrolidin-3-yl]-2-methyl-propanoyl]-3,5-dihydro-2H-pyrido[3,4-f][1,4]oxazepine-9-carbonitrile] | 0.1 to 100
CC1CC(C(=O)N2CCOc3c(C#N)cncc3C2)CCN1c1ncc(F)cn1 (stereo not drawn) [Example 91, 4-[1-(5-fluoropyrimidin-2-yl)-2-methyl-piperidine-4-carbonyl]-3,5-dihydro-2H-pyrido[3,4-f][1,4]oxazepine-9-carbonitrile] | 100 to 1000
N#Cc1cncc2c1OCCN(C(=O)C1CCCN(c3ncc(F)cn3)CC1)C2 (stereo not drawn) [Example 92, 4-[1-(5-fluoropyrimidin-2-yl)azepane-4-carbonyl]-3,5-dihydro-2H-pyrido[3,4-f][1,4]oxazepine-9-carbonitrile] | 100 to 1000
N#Cc1cncc2c1OCCN(C(=O)C13CC(COc4ncc(F)cn4)(C1)C3)C2 [Example 93, 4-(3-(((5-fluoropyrimidin-2-yl)oxy)methyl)bicyclo[1.1.1]pentane-1-carbonyl)-2,3,4,5-tetrahydropyrido[3,4-f][1,4]oxazepine-9-carbonitrile] | 100 to 1000
N#Cc1cncc2c1OCCN(C(=O)C1(C(F)F)CCN(c3ncc(F)cn3)CC1)C2 [Example 94, 4-[4-(difluoromethyl)-1-(5-fluoropyrimidin-2-yl)piperidine-4-carbonyl]-3,5-dihydro-2H-pyrido[3,4-f][1,4]oxazepine-9-carbonitrile] | 100 to 1000
N#Cc1cncc2c1OCCN(C(=O)C1(F)CCN(C(=O)c3cccnc3)CC1)C2 [Example 95, 4-[4-fluoro-1-(pyridine-3-carbonyl)piperidine-4-carbonyl]-3,5-dihydro-2H-pyrido[3,4-f][1,4]oxazepine-9-carbonitrile] | > 1000
CC1(C(=O)N2CCOc3c(C#N)cncc3C2)CCN(c2ncc(F)cn2)CC1(F)F (stereo not drawn) [Example 96, 4-[3,3-difluoro-1-(5-fluoropyrimidin-2-yl)-4-methyl-piperidine-4-carbonyl]-3,5-dihydro-2H-pyrido[3,4-f][1,4]oxazepine-9-carbonitrile] | 0.1 to 100
N#Cc1cncc2c1OCCN(C(=O)C1(F)CCN(c3ncc4ccccc4n3)CC1)C2 [Example 97, 4-(4-fluoro-1-quinazolin-2-yl-piperidine-4-carbonyl)-3,5-dihydro-2H-pyrido[3,4-f][1,4]oxazepine-9-carbonitrile] | 0.1 to 100
CCC1(C(=O)N2CCOc3c(C#N)cncc3C2)CCN(c2ncc(F)cn2)CC1 [Example 98, 4-[4-ethyl-1-(5-fluoropyrimidin-2-yl)piperidine-4-carbonyl]-3,5-dihydro-2H-pyrido[3,4-f][1,4]oxazepine-9-carbonitrile] | 100 to 1000
N#Cc1cncc2c1OCCN(C(=O)C13CCN(c4ncc(F)cn4)CC1C3(F)F)C2 (stereo not drawn) [Example 99, 4-[7,7-difluoro-3-(5-fluoropyrimidin-2-yl)-3-azabicyclo[4.1.0]heptane-6-carbonyl]-3,5-dihydro-2H-pyrido[3,4-f][1,4]oxazepine-9-carbonitrile] | 100 to 1000
N#Cc1cncc2c1OCCN(C(=O)C1(F)CCN(c3ncc(C4CC4)cn3)CC1)C2 [Example 100, 4-[1-(5-cyclopropylpyrimidin-2-yl)-4-fluoro-piperidine-4-carbonyl]-3,5-dihydro-2H-pyrido[3,4-f][1,4]oxazepine-9-carbonitrile] | 100 to 1000
COc1cnc(N2CCC(F)(C(=O)N3CCOc4c(C#N)cncc4C3)CC2)nc1 [Example 101, 4-[4-fluoro-1-(5-methoxypyrimidin-2-yl)piperidine-4-carbonyl]-3,5-dihydro-2H-pyrido[3,4-f][1,4]oxazepine-9-carbonitrile] | 100 to 1000
N#Cc1cncc2c1OCCN(C(=O)C1(F)CCN(c3ncc(OC(F)F)cn3)CC1)C2 [Example 102, 4-[1-[5-(difluoromethoxy)pyrimidin-2-yl]-4-fluoro-piperidine-4-carbonyl]-3,5-dihydro-2H-pyrido[3,4-f][1,4]oxazepine-9-carbonitrile] | 100 to 1000
